Results on 15 compounds are retold here after publication PMC5539244, “2-Oxoesters: A Novel Class of Potent and Selective Inhibitors of Cytosolic Group IVA Phospholipase A2” (Scientific Reports, 2017).

The structures appear in SMILES notation. Values joined by “and” are separate entries in the source; they are usually repeats but may differ in a detail not shown here. Equal entries are not always repeated. Where two headings read alike, the source gives them in different places. A value given as a limit tells only on which side of the number the result lay.

Series [1] concerns the target T1, recombinant human GIVA cPLA2 (Homo sapiens, UniProt P47712).
T1 sequence (P47712 1-749): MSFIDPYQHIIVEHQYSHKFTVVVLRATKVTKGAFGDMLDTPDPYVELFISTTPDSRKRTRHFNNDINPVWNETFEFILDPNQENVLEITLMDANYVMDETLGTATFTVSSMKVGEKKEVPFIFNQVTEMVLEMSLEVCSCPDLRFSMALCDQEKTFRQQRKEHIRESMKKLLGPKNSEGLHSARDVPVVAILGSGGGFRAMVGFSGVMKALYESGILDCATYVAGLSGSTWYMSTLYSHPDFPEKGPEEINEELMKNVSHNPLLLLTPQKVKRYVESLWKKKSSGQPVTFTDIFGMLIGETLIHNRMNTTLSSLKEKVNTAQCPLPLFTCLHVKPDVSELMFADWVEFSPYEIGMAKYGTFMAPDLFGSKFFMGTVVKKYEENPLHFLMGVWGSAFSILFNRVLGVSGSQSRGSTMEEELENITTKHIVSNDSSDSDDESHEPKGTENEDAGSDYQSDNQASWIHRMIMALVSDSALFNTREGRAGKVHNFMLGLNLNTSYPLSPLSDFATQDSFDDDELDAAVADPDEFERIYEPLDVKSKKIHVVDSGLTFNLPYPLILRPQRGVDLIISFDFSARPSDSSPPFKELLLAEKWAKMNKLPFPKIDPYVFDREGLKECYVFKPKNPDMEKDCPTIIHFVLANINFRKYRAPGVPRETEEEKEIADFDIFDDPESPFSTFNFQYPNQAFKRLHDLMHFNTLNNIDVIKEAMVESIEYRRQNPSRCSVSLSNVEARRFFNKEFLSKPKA
In words: mixed micelle assay, GIVA cPLA2 inhibition. The series is classed as biochemical. As to conditions: for GIVA cPLA2 X I(50): mole fraction of inhibitor in total substrate interface giving 50% inhibition; for inhibition at 0.091 mole fraction: read-out: GIVA cPLA2 % Inhibition.

Series [2] has as its target T2, human GVIA iPLA2 (Homo sapiens, UniProt O60733).
T2 sequence (O60733 1-806): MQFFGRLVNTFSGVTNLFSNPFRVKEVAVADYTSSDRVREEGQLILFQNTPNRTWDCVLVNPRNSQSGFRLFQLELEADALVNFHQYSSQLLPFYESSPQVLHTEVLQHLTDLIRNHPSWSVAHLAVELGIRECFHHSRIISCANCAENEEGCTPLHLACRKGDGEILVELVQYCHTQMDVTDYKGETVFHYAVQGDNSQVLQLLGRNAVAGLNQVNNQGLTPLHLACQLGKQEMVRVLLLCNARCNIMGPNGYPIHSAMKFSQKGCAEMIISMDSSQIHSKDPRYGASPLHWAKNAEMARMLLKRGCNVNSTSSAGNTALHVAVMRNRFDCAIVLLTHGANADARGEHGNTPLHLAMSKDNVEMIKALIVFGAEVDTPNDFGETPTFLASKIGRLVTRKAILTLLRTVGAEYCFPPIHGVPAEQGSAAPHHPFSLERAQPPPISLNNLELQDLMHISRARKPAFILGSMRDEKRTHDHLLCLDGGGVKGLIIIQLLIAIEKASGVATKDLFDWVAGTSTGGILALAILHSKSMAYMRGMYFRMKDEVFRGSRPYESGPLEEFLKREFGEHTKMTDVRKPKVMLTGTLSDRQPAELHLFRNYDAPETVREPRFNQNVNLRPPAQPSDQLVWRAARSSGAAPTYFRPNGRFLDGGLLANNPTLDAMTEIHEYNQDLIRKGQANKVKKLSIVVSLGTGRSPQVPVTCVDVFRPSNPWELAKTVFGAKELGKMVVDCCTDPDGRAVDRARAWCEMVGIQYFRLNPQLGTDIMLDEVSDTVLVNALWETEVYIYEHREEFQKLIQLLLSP
In words: mixed micelle assay, GVIA iPLA2 inhibition. The series is classed as biochemical. As to conditions: for inhibition at 0.091 mole fraction: read-out: GVIA iPLA2 % Inhibition.

For series [3], the target named is T3, human GV sPLA2 (Homo sapiens, UniProt P39877).
T3 sequence (P39877 21-138): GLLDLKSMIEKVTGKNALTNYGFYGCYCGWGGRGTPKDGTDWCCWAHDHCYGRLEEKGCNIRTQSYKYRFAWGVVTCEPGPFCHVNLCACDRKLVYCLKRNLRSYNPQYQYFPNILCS
The series is described as follows: mixed micelle assay, GV sPLA2 inhibition. Format: biochemical. To be noted: read-out: GV sPLA2 % Inhibition.

For series [4], the target named is T1, recombinant human GIVA cPLA2. Further details: method as in PMID 12086476, PMID 15214789. As to conditions: mixed micelle assay; cited from earlier work.
The mark [5] stands for this setting: at 0.091 mole fraction of inhibitor, mixed micelles.

Consider `CCCCCCOc1ccc(CCCCC(=O)C(=O)OCCCC(=O)O)cc1` [17b, 4-((6-(4-(Hexyloxy)phenyl)-2-oxohexanoyl)oxy)butanoic acid], for which, in series [1], the “GIVA cPLA2 X I(50)” value turned out to be 0.00289 ± 0.00043 mole fraction. For the same compound, the values for the inhibition at 0.091 mole fraction in series [1], in series [2] and in series [3] were more than 95%, less than 25% and 52.6 ± 5.3%, respectively.

Take `CCOC(=O)CCCOC(=O)C(=O)CCCCc1ccccc1` [compound 19, 4-Ethoxy-4-oxobutyl 2-oxo-6-phenylhexanoate]: the inhibition at 0.091 mole fraction in series [1] (setting [5]) is 27.3 ± 4.8%; in series [2] it was less than 25%; in series [3] (setting [5]), less than 25%.

Regarding `O=C1NC(=O)/C(=C/c2ccc(C(=O)NC[C@@H]3C[C@@H](SC(c4ccccc4)(c4ccccc4)c4ccccc4)CN3C(=O)c3ccccc3C(=O)c3ccc(F)cc3F)cc2)S1` [compound 1, pyrrophenone], the “GIVA cPLA2 X I(50)” value in series [4] is listed as 0.002 mole fraction.

`O=C(O)CCCOC(=O)C(=O)CCCCc1ccc(-c2ccccc2)cc1` [17d, 4-(6-(Biphenyl-4-yl)-2-oxohexanoyloxy)butanoic acid] returned a melting point of 101 to 103 °C. In series [1], the “GIVA cPLA2 X I(50)” value was 0.00068 mole fraction and 0.00068 ± 0.00007 mole fraction; the inhibition at 0.091 mole fraction is more than 95%. In addition, in series [1] (ratio of X I(50) values), the “times less potent than 17a on GIVA cPLA2” value is listed as “eight”. In addition, the inhibition at 0.091 mole fraction in series [2] was less than 25%. Besides, the inhibition at 0.091 mole fraction in series [3] was less than 25%.

In the case of `COC(=O)C(=O)CCCCc1ccc2ccccc2c1` [10b, Methyl 6-(naphthalen-2-yl)-2-oxohexanoate], the results for the inhibition at 0.091 mole fraction in series [1] (setting [5]), in series [2] (setting [5]) and in series [3] (setting [5]) were 55 ± 4%, more than 95% and less than 25%, respectively. Moreover, in series [2] (mole fraction of inhibitor in total substrate interface giving 50% inhibition), the “GVIA iPLA2 X I(50)” value is 0.0052 mole fraction and 0.0052 ± 0.0007 mole fraction.

Compound `CCCCCCCCCCCCCCC(=O)C(=O)OCCCC(=O)O` [17a, 4-((2-Oxohexadecanoyl)oxy)butanoic acid] registered a melting point of 76 to 78 °C. Further, in series [1], the “GIVA cPLA2 X I(50)” value is listed as 0.00008 ± 0.00001 mole fraction and the inhibition at 0.091 mole fraction is more than 95%. Also, the inhibition at 0.091 mole fraction in series [2] is less than 25%. Further, in series [3], the inhibition at 0.091 mole fraction was less than 25%.

Take `CCCCCCCCCCOc1ccc(OCC(=O)Cn2cc(C(=O)OC)c3cc(C(=O)O)ccc32)cc1` [compound 4, reference compound]: in series [1], the “GIVA cPLA2 X I(50)” value was 0.00008 mole fraction and 0.00008 ± 0.000005^c mole fraction; the inhibition at 0.091 mole fraction was more than 95%.

`CCCCCCCCCCCCCCC(=O)C(=O)O` [12e, 2-Oxohexadecanoic acid]: the inhibition at 0.091 mole fraction was 78.4 ± 3.5% in series [1] (setting [5]), less than 25% in series [2] and less than 25% in series [3] (setting [5]).

As for `O=C(O)CCCCOC(=O)C(=O)CCCc1ccc(-c2ccccc2)cc1` [17h, 5-((5-([1,1′-Biphenyl]-4-yl)-2-oxopentanoyl)oxy)pentanoic acid], the inhibition at 0.091 mole fraction in series [1] (setting [5]) was more than 95%; in series [2] (setting [5]), 94 ± 1.4%; in series [3], less than 25%. Moreover, in series [1], the “GIVA cPLA2 X I(50)” value was 0.0010 ± 0.0003 mole fraction.

Turning to `O=C(O)CCCOC(=O)C(=O)CCCc1ccc(-c2ccccc2)cc1` [17g, 4-((5-([1,1′-Biphenyl]-4-yl)-2-oxopentanoyl)oxy)butanoic acid], the melting point was 58 to 60 °C. Also, in series [1], the “GIVA cPLA2 X I(50)” value is given as 0.0065 ± 0.002 mole fraction and the inhibition at 0.091 mole fraction is more than 95%. In addition, in series [2], the inhibition at 0.091 mole fraction came to 84 ± 1.5%. Besides, the inhibition at 0.091 mole fraction in series [3] is less than 25%.

On to `CCCCCCCCCCCCCCC(=O)C(=O)OC` [10e, Methyl 2-oxohexadecanoate], for which the values for the inhibition at 0.091 mole fraction in series [1] (setting [5]), in series [2] and in series [3] (setting [5]) were 68.2 ± 2.7%, 69.4 ± 12.2% and 27.5 ± 0.9%, respectively.

Take `CC(C)(C)OC(=O)CCCOC(=O)C(=O)CCCCc1ccccc1` [16c, 4-(tert-Butoxy)-4-oxobutyl 2-oxo-6-phenylhexanoate]: the inhibition at 0.091 mole fraction in series [1] (setting [5]), in series [2] and in series [3] (setting [5]) was less than 25% each time.

As to `COC(=O)C(=O)CCCCc1ccccc1` [10a, Methyl 2-oxo-6-phenylhexanoate], the figures for the inhibition at 0.091 mole fraction in series [1] (setting [5]), in series [2] (setting [5]) and in series [3] (setting [5]) were less than 25%, 72 ± 4% and less than 25%, respectively.

In the case of `CCCCCCCCCCCCCCC(O)C(=O)OCCCC(=O)O` (centres unmarked) [compound 20, 4-((2-Hydroxyhexadecanoyl)oxy)butanoic acid], the inhibition at 0.091 mole fraction in series [1] is less than 25%; in series [2] it was less than 25%; in series [3], 41 ± 0.2%.

Consider `CCCCCCCCCCCCCCC(=O)C(=O)OCCCCC(=O)O` [17e, 5-((2-Oxohexadecanoyl)oxy)pentanoic acid], for which the inhibition at 0.091 mole fraction was more than 95% in series [1] (setting [5]), 25% in series [2] (setting [5]) and less than 25% in series [3]. Besides, the “GIVA cPLA2 X I(50)” value in series [1] is listed as 0.00007 ± 0.00001 mole fraction.
